Reference: the supplement of paper PMC13380429

What was measured:
Conditions in all cases: 72 h
Caco-2 [1] = assay: cell viability relative to DMSO; higher = less toxic
Calu-3 [2] = assay: as above
HepG2 [3] = assay: as above
U2OS [4] = assay: as above
Vero E6 [5] = assay: as above
Caco-2 [6] = assay: relative viability EC50 (midpoint between 100% and the lowest measured viability); higher = less toxic
Calu-3 [7] = assay: as above
HepG2 [8] = assay: as above
U2OS [9] = assay: as above
Vero E6 [10] = assay: as above
Caco-2 [11] = assay: drug sensitivity score (DSS) for viability; higher = more toxic; extreme values may be limits of the assay
Calu-3 [12] = assay: as above
HepG2 [13] = assay: as above
U2OS [14] = assay: as above
Vero E6 [15] = assay: as above

| SMILES | cell viability (Caco-2 [1]; 1 nM) | cell viability (Caco-2 [1]; 10 nM) | cell viability (Caco-2 [1]; 100 nM) | cell viability (Caco-2 [1]; 1000 nM) | cell viability (Caco-2 [1]; 10000 nM) | cell viability (Calu-3 [2]; 1 nM) | cell viability (Calu-3 [2]; 10 nM) | cell viability (Calu-3 [2]; 100 nM) | cell viability (Calu-3 [2]; 1000 nM) | cell viability (Calu-3 [2]; 10000 nM) | cell viability (HepG2 [3]; 1 nM) | cell viability (HepG2 [3]; 10 nM) | cell viability (HepG2 [3]; 100 nM) | cell viability (HepG2 [3]; 1000 nM) | cell viability (HepG2 [3]; 10000 nM) | cell viability (U2OS [4]; 1 nM) | cell viability (U2OS [4]; 10 nM) | cell viability (U2OS [4]; 100 nM) | cell viability (U2OS [4]; 1000 nM) | cell viability (U2OS [4]; 10000 nM) | cell viability (Vero E6 [5]; 1 nM) | cell viability (Vero E6 [5]; 10 nM) | cell viability (Vero E6 [5]; 100 nM) | cell viability (Vero E6 [5]; 1000 nM) | cell viability (Vero E6 [5]; 10000 nM) | relative viability EC50 (Caco-2 [6]) | relative viability EC50 (Calu-3 [7]) | relative viability EC50 (HepG2 [8]) | relative viability EC50 (U2OS [9]) | relative viability EC50 (Vero E6 [10]) | drug sensitivity score (Caco-2 [11]) | drug sensitivity score (Calu-3 [12]) | drug sensitivity score (HepG2 [13]) | drug sensitivity score (U2OS [14]) | drug sensitivity score (Vero E6 [15]) |
| --- | --- | --- | --- | --- | --- | --- | --- | --- | --- | --- | --- | --- | --- | --- | --- | --- | --- | --- | --- | --- | --- | --- | --- | --- | --- | --- | --- | --- | --- | --- | --- | --- | --- | --- | --- |
| O=[N+]([O-])c1nccn1CC(O)CN1CCCCC1 (stereo not given) [pimonidazole] | 94.1% | 86.5% | 100% | 87.4% | 102% | 93.6% | 93.2% | 99.9% | 97% | 107% | 95.8% | 111% | 94.9% | 95.4% | 108% | 94% | 96.4% | 102% | 95.3% | 106% | 99.1% | 98% | 94.7% | 108% | 106% | > 10 µM | > 10 µM | > 10 µM | > 10 µM | > 10 µM | 0 | 0 | 0 | 0 | 0 |
| C[C@]12CCC(=O)C=C1CC[C@@H]1[C@@H]2C(=O)C[C@]2(C)C(=O)CC[C@@H]12 [adrenosterone] | 107% | 96% | 98% | 95% | 97.5% | 106% | 92.5% | 100% | 98.1% | 96.4% | 98.6% | 98.8% | 94.5% | 97.7% | 97.5% | 103% | 95% | 98.2% | 97.4% | 99.1% | 95.3% | 100% | 99.3% | 97.5% | 97.1% | > 10 µM | > 10 µM | > 10 µM | > 10 µM | > 10 µM | 0 | 0 | 0 | 0 | 0 |
| CNC(=O)c1c(C)oc2cc(Oc3ncnc4cc(OC)c(OC)cc34)ccc12 [fruquintinib] | 90% | 97.4% | 97.8% | 98.9% | 94.7% | 103% | 103% | 98.7% | 107% | 98.8% | 107% | 109% | 100% | 86.5% | 103% | 102% | 104% | 102% | 102% | 90.8% | 96.1% | 93.4% | 102% | 94.5% | 91.6% | > 10 µM | > 10 µM | > 10 µM | > 10 µM | > 10 µM | 0 | 0 | 0 | 0 | 0 |
| O=C(Nc1cnn2ccc(N3CCC[C@@H]3c3cc(F)ccc3F)nc12)N1CC[C@H](O)C1 [larotrectinib] | 93.9% | 92.8% | 85.3% | 101% | 86% | 96.8% | 106% | 94.9% | 94.7% | 112% | 98.1% | 108% | 103% | 105% | 103% | 97.2% | 105% | 97.9% | 98.1% | 99.6% | 97.9% | 94.3% | 101% | 105% | 93.6% | > 10 µM | > 10 µM | > 10 µM | > 10 µM | > 10 µM | 0 | 0 | 0 | 0 | 0 |
| C=C[C@@H]1C[C@]1(NC(=O)[C@@H]1C[C@@H](Oc2ncc(OC)c3ccc(Cl)cc23)CN1C(=O)[C@@H](NC(=O)OC(C)(C)C)C(C)(C)C)C(=O)NS(=O)(=O)C1CC1 [asunaprevir] | 98.7% | 96.5% | 90% | 104% | 85.8% | 104% | 101% | 104% | 101% | 95.9% | 104% | 97.8% | 98.8% | 89.8% | 86.1% | 98.4% | 101% | 96.7% | 96.8% | 97.8% | 102% | 98.4% | 93.5% | 101% | 91% | > 10 µM | > 10 µM | > 10 µM | > 10 µM | > 10 µM | 0.1 | 0 | 0.6 | 0 | 0 |
| Cc1nnc(C(C)C)n1C1C[C@H]2CC[C@@H](C1)N2CC[C@H](NC(=O)C1CCC(F)(F)CC1)c1ccccc1 (stereo in doubt) [maraviroc] | 101% | 93.8% | 99.5% | 97.9% | 108% | 107% | 89.8% | 101% | 108% | 114% | 114% | 97.3% | 94.4% | 86.5% | 101% | 99.4% | 95.1% | 100% | 99.7% | 106% | 97.4% | 97.8% | 97.1% | 92.3% | 104% | > 10 µM | > 10 µM | > 10 µM | > 10 µM | > 10 µM | 0 | 0 | 0 | 0 | 0 |
| CCC[C@H](NC(=O)[C@@H]1[C@H]2CCC[C@H]2CN1C(=O)[C@@H](NC(=O)[C@@H](NC(=O)c1cnccn1)C1CCCCC1)C(C)(C)C)C(=O)C(=O)NC1CC1 [telaprevir] | 101% | 93.1% | 95.6% | 102% | 91.5% | 106% | 88.1% | 101% | 93.6% | 97.6% | 115% | 108% | 98.8% | 107% | 87% | 99.2% | 97.9% | 102% | 98.8% | 93.9% | 100% | 103% | 98.9% | 105% | 99% | > 10 µM | > 10 µM | > 10 µM | > 10 µM | > 10 µM | 0 | 0 | 0 | 0 | 0 |
| O=C(O)COc1nn(Cc2ccccc2)c2ccccc12 [bendazac] | 109% | 96.3% | 103% | 97.6% | 102% | 86.6% | 83.3% | 104% | 103% | 104% | 91.7% | 104% | 97.3% | 94.1% | 98.7% | 91.7% | 95.3% | 98.9% | 92.3% | 96.1% | 101% | 101% | 99% | 103% | 98.8% | > 10 µM | > 10 µM | > 10 µM | > 10 µM | > 10 µM | 0 | 0 | 0 | 0 | 0 |
| CCn1c(=O)[nH]c2ccccc21 [1-EBIO] | 94.4% | 93.5% | 98% | 100% | 91% | 99.1% | 105% | 104% | 106% | 81.8% | 96.7% | 98.6% | 91.4% | 84% | 110% | 95.7% | 94.3% | 104% | 98.4% | 93.2% | 97.4% | 97.5% | 89.7% | 98.2% | 104% | > 10 µM | > 10 µM | > 10 µM | > 10 µM | > 10 µM | 0 | 0.3 | 0 | 0 | 0 |
| CC(c1cc2ccccc2s1)N(O)C(N)=O (stereo not given) [zileuton] | 93.7% | 96.3% | 93.3% | 100% | 91% | 89.5% | 90.6% | 102% | 96.1% | 94.6% | 109% | 95.1% | 101% | 94.2% | 102% | 97.1% | 98.7% | 96.9% | 102% | 96.4% | 103% | 105% | 107% | 101% | 99.7% | > 10 µM | > 10 µM | > 10 µM | > 10 µM | > 10 µM | 0 | 0 | 0 | 0 | 0 |
| Oc1ccc2c3c1O[C@H]1c4[nH]c5c(c4C[C@@]4(O)[C@@H](C2)N(CC2CC2)CC[C@]314)C[C@@]1(O)[C@H]2Cc3ccc(O)c4c3[C@@]1(CCN2CC1CC1)[C@H]5O4 [nor-binaltorphimine] | 97.9% | 90.4% | 100% | 102% | 106% | 105% | 99.9% | 100% | 106% | 102% | 93.7% | 108% | 111% | 105% | 99.2% | 103% | 109% | 106% | 98.6% | 99% | 92.5% | 98.3% | 91.2% | 95.7% | 108% | > 10 µM | > 10 µM | > 10 µM | > 10 µM | > 10 µM | 0 | 0 | 0 | 0 | 0 |
| Cc1cc(C(=O)N2Cc3cnn(C)c3Nc3ccccc32)ccc1CNC(=O)N1CCC[C@H]1C(=S)N1CCCN(C)CC1 [TC-OT-39] | 99.8% | 92.2% | 98.7% | 106% | 100% | 98.1% | 84.4% | 105% | 97.9% | 90% | 100% | 90.3% | 97% | 104% | 96.8% | 97.7% | 100% | 106% | 98% | 101% | 95.3% | 98.6% | 94.4% | 97.5% | 102% | > 10 µM | > 10 µM | > 10 µM | > 10 µM | > 10 µM | 0 | 0 | 0 | 0 | 0 |
| CC(=O)CC/C=C(\C)CC/C=C(\C)CC/C=C(\C)CCC=C(C)C [teprenone] | 96.9% | 88.2% | 93.7% | 98.6% | 116% | 92.2% | 88.5% | 99.7% | 95.5% | 94.9% | 96.3% | 102% | 97.4% | 92.3% | 101% | 102% | 95.4% | 103% | 96.9% | 99.2% | 94.8% | 103% | 92.6% | 103% | 100% | > 10 µM | > 10 µM | > 10 µM | > 10 µM | > 10 µM | 0 | 0 | 0 | 0 | 0 |
| CC(NC(C)(C)C)C(=O)c1cccc(Cl)c1 (stereo not given) [bupropion] | 90.3% | 90.6% | 86.4% | 105% | 91.6% | 104% | 96.3% | 101% | 106% | 101% | 100% | 103% | 103% | 105% | 95% | 95.1% | 96% | 99% | 94.4% | 93.8% | 107% | 105% | 102% | 92.1% | 81.7% | > 10 µM | > 10 µM | > 10 µM | > 10 µM | > 10 µM | 0 | 0 | 0 | 0 | 1.3 |
